Assay results: ChEMBL document CHEMBL1201862, “PubChem BioAssay data set” (2004)
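Growth conditions: 96-well plates. Treatment: test compound, 48 hours, 5 concentrations. Analysis: linear interpolation between bracketing concentrations; unreached endpoints set to highest concentration. At the GI50, growth is halved.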 Calls of active or inactive are those of the source. Rule as the data show it: active = GI50 up to about 1.1 µM and inactive = higher.

Experiments:
Experiment in all cases: NCI tumour cell line growth inhibition, 48 h
MDA-N = test system: MDA-N
HT-29 = test system: HT-29
SNB-19 = test system: SNB-19
OVCAR-3 = test system: OVCAR-3
SF-295 = test system: SF-295
SK-MEL-5 = test system: SK-MEL-5
EKVX = test system: EKVX
786-0 = test system: 786-0
COLO 205 = test system: COLO 205
SF-268 = test system: SF-268
HOP-62 = test system: HOP-62
SW-620 = test system: SW-620
UACC-257 = test system: UACC-257
MDA-MB-435 = test system: MDA-MB-435
LOX IMVI = test system: LOX IMVI
HCT-116 = test system: HCT-116
SR = test system: SR
OVCAR-5 = test system: OVCAR-5
KM12 = test system: KM12
HL-60 = test system: HL-60
ACHN = test system: ACHN
U-251 = test system: U-251
BT-549 = test system: BT-549
A498 = test system: A498
SN12C = test system: SN12C
CCRF-CEM = test system: CCRF-CEM
SK-MEL-28 = test system: SK-MEL-28
NCI-H522 = test system: NCI-H522
IGROV-1 = test system: IGROV-1
NCI/ADR-RES = test system: NCI/ADR-RES
Hs-578T = test system: Hs-578T
UO-31 = test system: UO-31
NCI-H460 = test system: NCI-H460
HCT-15 = test system: HCT-15
OVCAR-4 = test system: OVCAR-4
PC-3 = test system: PC-3
NCI-H23 = test system: NCI-H23
RPMI-8226 = test system: RPMI-8226
K562 = test system: K562
CAKI-1 = test system: CAKI-1
UACC-62 = test system: UACC-62
HCC 2998 = test system: HCC 2998
HOP-92 = test system: HOP-92
MCF7 = test system: MCF7
RXF 393 = test system: RXF 393
DU-145 = test system: DU-145
M14 = test system: M14
NCI-H226 = test system: NCI-H226
SK-OV-3 = test system: SK-OV-3
A549 = test system: A549
MDA-MB-231 = test system: MDA-MB-231
MOLT-4 = test system: MOLT-4
TK-10 = test system: TK-10
OVCAR-8 = test system: OVCAR-8
T47D = test system: T47D
SNB-75 = test system: SNB-75
SK-MEL-2 = test system: SK-MEL-2
SF-539 = test system: SF-539

**Q.** How did the GI50 (MDA-N) turn out when `Cc1cc(OCC(=O)N/N=C/C(Br)=C/c2ccccc2)nc(SCC(=O)N/N=C/C(Br)=C/c2ccccc2)n1` was run?
**A.** 49400 nM (inactive)

**Q.** What about the GI50 (HT-29) of the same compound?
**A.** > 100000 nM (inactive)

**Q.** What about the GI50 (SNB-19) of the same compound?
**A.** > 100000 nM (inactive)

**Q.** What about the GI50 (OVCAR-3) of the same compound?
**A.** > 100000 nM (inactive)

**Q.** What about the GI50 (SF-295) of the same compound?
**A.** > 100000 nM (inactive)

**Q.** What about the GI50 (SK-MEL-5) of the same compound?
**A.** > 100000 nM (inactive)

**Q.** And the GI50 (EKVX)?
**A.** 80000 nM (inactive)

**Q.** What about the GI50 (786-0) of the same compound?
**A.** 34800 nM (inactive)

**Q.** And the GI50 (COLO 205)?
**A.** 39100 nM (inactive)

**Q.** And the GI50 (SF-268)?
**A.** 48200 nM (inactive)

**Q.** And the GI50 (HOP-62)?
**A.** 51500 nM (inactive)

**Q.** What about the GI50 (SW-620) of the same compound?
**A.** > 100000 nM (inactive)

**Q.** And the GI50 (UACC-257)?
**A.** > 100000 nM (inactive)

**Q.** What about the GI50 (MDA-MB-435) of the same compound?
**A.** > 100000 nM (inactive)

**Q.** And the GI50 (LOX IMVI)?
**A.** > 100000 nM (inactive)

**Q.** And the GI50 (HCT-116)?
**A.** > 100000 nM (inactive)

**Q.** And the GI50 (SR)?
**A.** > 100000 nM (inactive)

**Q.** And the GI50 (OVCAR-5)?
**A.** > 100000 nM (inactive)

**Q.** And the GI50 (KM12)?
**A.** 39900 nM (inactive)

**Q.** And the GI50 (HL-60)?
**A.** > 100000 nM (inactive)

**Q.** What about the GI50 (ACHN) of the same compound?
**A.** > 100000 nM (inactive)

**Q.** And the GI50 (U-251)?
**A.** > 100000 nM (inactive)

**Q.** And the GI50 (BT-549)?
**A.** > 100000 nM (inactive)

**Q.** What about the GI50 (A498) of the same compound?
**A.** > 100000 nM (inactive)

**Q.** And the GI50 (SN12C)?
**A.** > 100000 nM (inactive)

**Q.** And the GI50 (CCRF-CEM)?
**A.** > 100000 nM (inactive)

**Q.** What about the GI50 (SK-MEL-28) of the same compound?
**A.** > 100000 nM (inactive)

**Q.** And the GI50 (NCI-H522)?
**A.** 26600 nM (inactive)

**Q.** What about the GI50 (IGROV-1) of the same compound?
**A.** 52200 nM (inactive)

**Q.** What about the GI50 (NCI/ADR-RES) of the same compound?
**A.** 53600 nM (inactive)

**Q.** And the GI50 (Hs-578T)?
**A.** 39900 nM (inactive)

**Q.** And the GI50 (UO-31)?
**A.** > 100000 nM (inactive)

**Q.** And the GI50 (NCI-H460)?
**A.** 28200 nM (inactive)

**Q.** What about the GI50 (HCT-15) of the same compound?
**A.** > 100000 nM

**Q.** What about the GI50 (OVCAR-4) of the same compound?
**A.** 42000 nM (inactive)

**Q.** What about the GI50 (PC-3) of the same compound?
**A.** 54100 nM (inactive)

**Q.** And the GI50 (NCI-H23)?
**A.** > 100000 nM (inactive)

**Q.** And the GI50 (RPMI-8226)?
**A.** 68500 nM (inactive)

**Q.** What about the GI50 (K562) of the same compound?
**A.** > 100000 nM (inactive)

**Q.** What about the GI50 (CAKI-1) of the same compound?
**A.** > 100000 nM (inactive)

**Q.** What about the GI50 (UACC-62) of the same compound?
**A.** > 100000 nM (inactive)

**Q.** And the GI50 (HCC 2998)?
**A.** 23000 nM (inactive)

**Q.** And the GI50 (HOP-92)?
**A.** 24900 nM (inactive)

**Q.** And the GI50 (MCF7)?
**A.** 75700 nM (inactive)

**Q.** What about the GI50 (RXF 393) of the same compound?
**A.** 49100 nM (inactive)

**Q.** And the GI50 (DU-145)?
**A.** 58300 nM (inactive)

**Q.** And the GI50 (M14)?
**A.** > 100000 nM (inactive)

**Q.** With `N#Cc1c(N)[nH]c2ccc(Sc3ccccc3)cc12` as the compound, how does the GI50 (HT-29) read?
**A.** 210 nM (active)

**Q.** And the GI50 (SNB-19)?
**A.** 460 nM (active)

**Q.** What about the GI50 (OVCAR-3) of the same compound?
**A.** 215 nM (active)

**Q.** And the GI50 (SF-295)?
**A.** 230 nM (active)

**Q.** And the GI50 (SK-MEL-5)?
**A.** 145 nM (active)

**Q.** What about the GI50 (NCI-H226) of the same compound?
**A.** 457 nM (active)

**Q.** What about the GI50 (EKVX) of the same compound?
**A.** 659 nM (active)

**Q.** What about the GI50 (786-0) of the same compound?
**A.** 152 nM (active)

**Q.** And the GI50 (COLO 205)?
**A.** 323 nM (active)

**Q.** What about the GI50 (SF-268) of the same compound?
**A.** 248 nM (active)

**Q.** What about the GI50 (HOP-62) of the same compound?
**A.** 456 nM (active)

**Q.** What about the GI50 (SW-620) of the same compound?
**A.** 121 nM (active)

**Q.** And the GI50 (UACC-257)?
**A.** 12800 nM (inactive)

**Q.** And the GI50 (MDA-MB-435)?
**A.** < 107 nM (active)

**Q.** What about the GI50 (LOX IMVI) of the same compound?
**A.** 213 nM (active)

**Q.** And the GI50 (HCT-116)?
**A.** 111 nM (active)

**Q.** And the GI50 (SK-OV-3)?
**A.** 530 nM (active)

**Q.** And the GI50 (A549)?
**A.** 282 nM (active)

**Q.** What about the GI50 (MDA-MB-231) of the same compound?
**A.** 881 nM (active)

**Q.** What about the GI50 (MOLT-4) of the same compound?
**A.** 143 nM (active)

**Q.** What about the GI50 (OVCAR-5) of the same compound?
**A.** 964 nM (active)

**Q.** What about the GI50 (KM12) of the same compound?
**A.** 113 nM (active)

**Q.** And the GI50 (HL-60)?
**A.** 33.3 nM (active)

**Q.** What about the GI50 (TK-10) of the same compound?
**A.** 1800 nM (inactive)

**Q.** And the GI50 (ACHN)?
**A.** 284 nM (active)

**Q.** And the GI50 (U-251)?
**A.** 297 nM (active)

**Q.** What about the GI50 (BT-549) of the same compound?
**A.** 1160 nM (inactive)

**Q.** What about the GI50 (A498) of the same compound?
**A.** 196 nM (active)

**Q.** What about the GI50 (SN12C) of the same compound?
**A.** 574 nM (active)

**Q.** What about the GI50 (CCRF-CEM) of the same compound?
**A.** 151 nM (active)

**Q.** What about the GI50 (SK-MEL-28) of the same compound?
**A.** 141 nM (active)

**Q.** What about the GI50 (NCI-H522) of the same compound?
**A.** 112 nM (active)

**Q.** What about the GI50 (IGROV-1) of the same compound?
**A.** 198 nM (active)

**Q.** What about the GI50 (NCI/ADR-RES) of the same compound?
**A.** 101 nM (active)

**Q.** What about the GI50 (Hs-578T) of the same compound?
**A.** 449 nM (active)

**Q.** And the GI50 (OVCAR-8)?
**A.** 358 nM (active)

**Q.** And the GI50 (UO-31)?
**A.** 236 nM (active)

**Q.** What about the GI50 (T47D) of the same compound?
**A.** 622 nM (active)

**Q.** And the GI50 (NCI-H460)?
**A.** 201 nM (active)

**Q.** And the GI50 (HCT-15)?
**A.** 98 nM

**Q.** What about the GI50 (OVCAR-4) of the same compound?
**A.** 675 nM (active)

**Q.** What about the GI50 (PC-3) of the same compound?
**A.** 275 nM (active)

**Q.** And the GI50 (SNB-75)?
**A.** 624 nM (active)

**Q.** And the GI50 (NCI-H23)?
**A.** 323 nM (active)

**Q.** What about the GI50 (SK-MEL-2) of the same compound?
**A.** 338 nM (active)

**Q.** What about the GI50 (RPMI-8226) of the same compound?
**A.** 361 nM (active)

**Q.** And the GI50 (K562)?
**A.** < 63.5 nM (active)

**Q.** What about the GI50 (CAKI-1) of the same compound?
**A.** 216 nM (active)

**Q.** What about the GI50 (UACC-62) of the same compound?
**A.** 133 nM (active)

**Q.** And the GI50 (SF-539)?
**A.** 234 nM (active)

**Q.** And the GI50 (HCC 2998)?
**A.** 516 nM (active)

**Q.** And the GI50 (HOP-92)?
**A.** 1780 nM (inactive)

**Q.** And the GI50 (MCF7)?
**A.** < 71.1 nM (active)

**Q.** And the GI50 (RXF 393)?
**A.** 208 nM (active)

**Q.** What about the GI50 (DU-145) of the same compound?
**A.** 721 nM (active)

**Q.** What about the GI50 (M14) of the same compound?
**A.** 82.8 nM (active)
